As usually defined, the EC50 is the concentration giving half of the maximal effect. Higher therefore signals weaker potency.

This is an account of results in patent publication US20230220010A1, “BROAD-SPECTRUM ANTIVIRAL PEPTIDES” (priority 2020, published 2023).

For data set [1], the system named is Lassa pseudovirus (LASVpv). The settings on record: for EC50: 72 h.
The next data set relates to H3N2 influenza virus. The following applies: for EC50: influenza virus.
Another data set relates to HEK 293T/17 cells. Kind of data set: Cytotoxicity assay, CELLTITER-GLO, HEK cells. The following applies: for cell viability, HEK 293T/17 cells: peptide concentrations approximately below 4 μM, about 72 hours. (In general: In ATP-based viability assays light output follows the ATP content of the culture.)
The nature of data set [2]: Cytotoxicity assay, ALAMARBLUE, HEK cells. For orientation: Resazurin is reduced to fluorescent resorufin, in cell work by metabolically active cells.

Square brackets hold non-standard residues; d marks the D form. Ends that are not written are not given here. Peptide text beside a SMILES is read from it. Some results are limits rather than exact numbers.

Turning to KDGWLLLRLGYGRR [Cterm-Cat], the “antiviral activity against LASVpv” value in data set [1] is on record as “next most active peptide”.

Take WALRLYLGVY-NH2 [ARYV, WALRLYLGVY]: the EC50 in the data set on H3N2 influenza virus was 3.7 µM; in data set [1], 7.9 µM.

For “RRGWLLLLNLLLLWGRR-NH2 [TL4N, RRGWLLLLNLLLLWGRR]”, the “CC50 compared to IT1b” value with HEK 293T/17 cells (% greater than that of IT1b, HEK cells) is listed as “over 500%”. For the same compound, the “cytotoxicity against HEK cells” value with HEK 293T/17 cells (CELLTITER-GLO, 3 days) is “much less cytotoxic than TL3”.

In the case of `CC(C)C[C@@H](NC(=O)[C@@H](Cc1c[nH]c2ccccc12)NC(=O)CNC(=O)[C@@H](CCCNC(=N)N)NC(=O)[C@H](N)CCCNC(=N)N)C(=O)N[C@H](CC(C)C)C(=O)N[C@H](CC(C)C)C(=O)N[C@H](CCCNC(=N)N)C(=O)N[C@H](CC(C)C)C(=O)N[C@H](CC(C)C)C(=O)N[C@H](CCCNC(=N)N)C(=O)N[C@H](CC(C)C)C(=O)N[C@H](CC(C)C)C(=O)N[C@H](CC(C)C)C(=O)N[C@H](CCCNC(=N)N)C(=O)N[C@H](CC(C)C)C(=O)N[C@H](CC(C)C)C(=O)N[C@H](Cc1c[nH]c2ccccc12)C(=O)NCC(=O)N[C@H](CCCNC(=N)N)C(=O)N[C@H](CCCNC(=N)N)C(N)=O` [D-AHR, rrgwlllrllrlllrllwgrr] (H-[dR][dR]G[dW][dL][dL][dL][dR][dL][dL][dR][dL][dL][dL][dR][dL][dL][dW]G[dR][dR]-NH2), the “cell viability, HEK 293T/17 cells” value in the data set with HEK 293T/17 cells was “high cell viability”.

For RRGFSLKLALLKDGWLLLLRLGYGRR-NH2 [IT1-f], the EC50 in the data set on H3N2 influenza virus came to 1.5 µM; in data set [1], 1.1 µM; in data set [2], 20 µM.

For the compound “RRRRRRRRRWC-NH2 [Arg9, RRRRRRRRRWC, reference compound]”, the values for the EC50 (with H3N2 influenza virus; in data set [1]; in data set [2]) were 6.7 µM, above 100 µM and above 75 µM, respectively.

In the case of LALLKDGWLLL [Mid], the “antiviral activity against LASVpv” value in data set [1] was “no antiviral activity”.

With “RRGWTLNLTLNYGRR-NH2 [*TNTN*, RRGWTLNLTLNYGRR]”, the figures for the EC50 (with H3N2 influenza virus; in data set [1]; in data set [2]) were 6.1 µM, 1.1 µM and 22 µM, respectively.

For KLALLKDGWLLLR [Mid-Cat], in data set [1], the “antiviral activity against LASVpv” value was “moderate potency”.

For the compound `CC(C)C[C@@H](NC(=O)[C@@H](C)NC(=O)[C@@H](CC(C)C)NC(=O)[C@@H](CCCCN)NC(=O)[C@@H](CC(C)C)NC(=O)[C@@H](CO)NC(=O)[C@@H](Cc1ccccc1)NC(=O)CNC(=O)[C@@H](CCCNC(=N)N)NC(=O)[C@H](N)CCCNC(=N)N)C(=O)N[C@H](CC(C)C)C(=O)N[C@H](CCCCN)C(=O)N[C@H](CC(=O)O)C(=O)NCC(=O)N[C@H](Cc1c[nH]c2ccccc12)C(=O)N[C@H](CC(C)C)C(=O)N[C@H](CC(C)C)C(=O)N[C@H](CC(C)C)C(=O)N[C@H](CCCNC(=N)N)C(=O)N[C@H](CC(C)C)C(=O)NCC(=O)N[C@H](Cc1ccc(O)cc1)C(=O)NCC(=O)N[C@H](CCCNC(=N)N)C(=O)N[C@H](CCCNC(=N)N)C(N)=O` [D-IT1b, rrgfslklallkdgwlllrlgygrr] (H-[dR][dR]G[dF][dS][dL][dK][dL][dA][dL][dL][dK][dD]G[dW][dL][dL][dL][dR][dL]G[dY]G[dR][dR]-NH2), the “cell viability, HEK 293T/17 cells” value in the data set on HEK 293T/17 cells was “high cell viability”.

In the case of RRGWALRLVLAY-NH2 [*ARVA, RRGWALRLVLAY], the EC50 in the data set with H3N2 influenza virus is 0.9 µM; in data set [1], 6.2 µM; in data set [2], above 75 µM.

Regarding `CC(C)C[C@@H](NC(=O)[C@@H](Cc1c[nH]c2ccccc12)NC(=O)[C@@H](CCCNC(=N)N)NC(=O)[C@H](N)CCCNC(=N)N)C(=O)N[C@H](CC(C)C)C(=O)N[C@H](CC(C)C)C(=O)N[C@H](CC(C)C)C(=O)N[C@H](CC(N)=O)C(=O)N[C@H](CC(C)C)C(=O)N[C@H](CC(C)C)C(=O)N[C@H](CC(C)C)C(=O)N[C@H](CC(C)C)C(=O)N[C@H](Cc1c[nH]c2ccccc12)C(=O)N[C@H](CCCNC(=N)N)C(=O)N[C@H](CCCNC(=N)N)C(N)=O` [D-TL4NdG, rrwllllnllllwrr] (H-[dR][dR][dW][dL][dL][dL][dL][dN][dL][dL][dL][dL][dW][dR][dR]-NH2), the “cell viability, HEK 293T/17 cells” value in the data set with HEK 293T/17 cells is on record as “high cell viability”.

Consider “RRGWGLRLVLYYGRR-NH2 [*GRVY*, RRGWGLRLVLYYGRR]”, for which the EC50 in the data set with H3N2 influenza virus stood at 9.1 µM; in data set [1], 2.1 µM.

As for RRGFSLKLALLYRGWLLLLRLGYGRR-NH2 [IT1-c], in the data set with H3N2 influenza virus, the midpoint of the response, the EC50, lay at 1.2 µM.

For PLZYLRLLRGQF [TP2, reference compound], the “activity against H3N2” value with H3N2 influenza virus is recorded as “some antiviral activity”.

Turning to “GIGAVLKGLATGLPAGISWIKQQAQL-NH2 [MelN4, reference compound]”, the EC50 in data set [1] and in data set [2] was above 100 µM in each case.

“RRGWNLRLRLVYGRR-NH2 [*NRRV*, RRGWNLRLRLVYGRR]”: the EC50 in the data set with H3N2 influenza virus worked out at 8 µM; in data set [2], 15 µM.

For “RRGWRLNLNLYYGRR-NH2 [*RNNY*, RRGWRLNLNLYYGRR]”, the EC50 turned out to be 2.3 µM in the data set with H3N2 influenza virus, 2.1 µM in data set [1] and 19 µM in data set [2].

As for `CC(C)C[C@@H](NC(=O)[C@@H](Cc1c[nH]c2ccccc12)NC(=O)CNC(=O)[C@@H](CCCNC(=N)N)NC(=O)[C@H](N)CCCNC(=N)N)C(=O)N[C@H](CC(C)C)C(=O)N[C@H](CC(C)C)C(=O)N[C@H](CCCNC(=N)N)C(=O)N[C@H](CC(C)C)C(=O)N[C@H](CC(C)C)C(=O)N[C@H](CC(C)C)C(=O)N[C@H](Cc1c[nH]c2ccccc12)C(=O)NCC(=O)N[C@H](CCCNC(=N)N)C(=O)N[C@H](CCCNC(=N)N)C(N)=O` [D-TL3, rrgwlllrlllwgrr] (H-[dR][dR]G[dW][dL][dL][dL][dR][dL][dL][dL][dW]G[dR][dR]-NH2), the “cell viability, HEK 293T/17 cells” value with HEK 293T/17 cells is “high cell viability”.

Take RRGFSLKLRLLYRGWGLALRLGYGRR-NH2 [IT1-d]: the EC50 in the data set with H3N2 influenza virus is 0.4 µM; in data set [1], 1.3 µM; in data set [2], above 100 µM.

Compound WVLVLRLGY-NH2 [VVRG, WVLVLRLGY] displayed an EC50 with H3N2 influenza virus of 6.1 µM.

For RRGFSLKLKLLYRGWALALRLGYGRR-NH2 [IT1-e], the EC50 was 0.6 µM in the data set with H3N2 influenza virus, 1.2 µM in data set [1] and above 50 µM in data set [2].

In the case of “RRGWVLDLVLYYGRR-NH2 [*VDVY*, RRGWVLDLVLYYGRR]”, the EC50 in the data set on H3N2 influenza virus is 12 µM; in data set [1], 5 µM; in data set [2], above 100 µM.

As for `CC(C)C[C@@H](NC(=O)[C@@H](C)NC(=O)[C@@H](Cc1c[nH]c2ccccc12)NC(=O)CNC(=O)[C@@H](CCCNC(=N)N)NC(=O)[C@H](N)CCCNC(=N)N)C(=O)N[C@H](CCCNC(=N)N)C(=O)N[C@H](CC(C)C)C(=O)N[C@@H](C(=O)N[C@H](CC(C)C)C(=O)N[C@H](C)C(=O)N[C@H](Cc1ccc(O)cc1)C(N)=O)C(C)C` [*arva] (H-[dR][dR]G[dW][dA][dL][dR][dL][dV][dL][dA][dY]-NH2), the response in the data set on H3N2 influenza virus was half-maximal at 0.4 µM (EC50).

In the case of `CC[C@H](C)[C@H](NC(=O)CN)C(=O)NCC(=O)N[C@@H](C)C(=O)N[C@H](C(=O)N[C@@H](CC(C)C)C(=O)N[C@@H](CCCCN)C(=O)N[C@H](C(=O)N[C@@H](CC(C)C)C(=O)N[C@H](C(=O)N[C@H](C(=O)NCC(=O)N[C@@H](CC(C)C)C(=O)N1CCC[C@H]1C(=O)N[C@@H](C)C(=O)NCC(=O)N[C@H](C(=O)N[C@@H](CO)C(=O)N[C@@H](Cc1c[nH]c2ccccc12)C(=O)N[C@H](C(=O)N[C@@H](CCCCN)C(=O)N[C@@H](CCCNC(=N)N)C(=O)N[C@@H](CCCCN)C(=O)N[C@@H](CCCNC(=N)N)C(=O)N[C@@H](CCC(N)=O)C(=O)N[C@@H](CCC(N)=O)C(N)=O)[C@@H](C)CC)[C@@H](C)CC)[C@@H](C)O)[C@@H](C)O)C(C)C)C(C)C` [Mel-L16G, reference compound], the EC50 amounted to 28 µM in data set [1] and 21 µM in data set [2].
